# According to US12011433B2 (UNIVERSITÁ DEGLI STUDI DI BARI “ALDO MORO”, priority 2016, dated 2024):
# Marks after values point to notes of the source that are not given here.
# Columns and labels:
# Type in all cases: in vivo
# PGE2 = PGE2 release in brain specimens from LPS-treated mice; conditions: for PGE2 release reduction (%): LPS-treated mice, mofezolac 6 mg/kg i.p.; for PGE2 release (ng/mg tissue): LPS or M+LPS treated mice
# Description: (§1) On the seventh day, mice were anesthetized with tribromoethanol (250 mg/Kg, i.p.) and positioned in a stereotactic apparatus (Kopf Instruments, Tujunga, CA, USA). […] Sterotaxic injections coordinates were: 2.3 mm dorsal/ventral, 1.0 mm lateral, and 0.5 mm anterior/posterior from the bregma.
# Microglial cells were cultured in 6-well plates at a density of 3×10^6 cells/well. […] The cultures were maintained at 37° C. for 24 and 48 h in a humidified air containing a 5% CO2. PGE2 levels were determined in the supernatant using a competitive binding immunoassay (Cayman Chemical, Ann Arbor, MI, USA) following the manufacturer's instructions. Unstimulated cells were included as a control. PGE2 amount determination in the brain was performed in the tissue extracts, according to the manufacturer's instructions. The optical density was measured at λ=405-420 nm with precision microplate reader and the amount of PGE2 (ng/mL) was calculated using a PGE2 standard curve.
# Iba-1 = assay: microglial activation in LPS-treated mice, Iba-1 immunoreactivity and immunoblotting
# Description: (§2) The protein concentration in the supernatant was spectrophotometrically determined by Bradford's protein assay (Bradford, 1976). […] Proteins (25 μg/lane) and prestained standards (BioRad Laboratories, Hercules, CA, USA) were loaded on 7% or 12% SDS precast polyacrylamide gels (BioRad Laboratories). After electrophoresis, the resolved proteins were transferred from the gel to nitrocellulose membranes. A blotting buffer [20 mMTris/150 mM glycine, pH=8.0, 20% (v/v) methanol] was used for gel and membrane saturation and blotting. […] Bands were visualized by chemiluminescence detection (Invitrogen, Milan, Italy). The β-actin level was used as a protein loading control. For tissue analysis, obtained bands were normalized to the level of β-actin performed for each cerebral area tested. For cell cultures the bands were normalized to the β-actin level in each experimental condition. […] VM in all the Figures) once a day for 10 days. […] On the seventh day, mice were anesthetized with tribromoethanol (250 mg/Kg, i.p.) and positioned in a stereotactic apparatus (Kopf Instruments, Tujunga, CA, USA). […] Immunohistochemistry was performed following a standard avidin-biotin complex procedure. […]
# COX-1 = COX-1 (Mus musculus (Mouse), UniProt P22437); assay: COX-1 expression in brain regions of LPS-treated mice, immunoblotting; conditions: for COX-1 expression reduction (%): LPS-treated mice, mofezolac 6 mg/kg i.p.
# Description: Substantia nigra pars compacta (SNpc), Hippocampus, Frontal lobe and Caudate from mice brains were minced in ice-cold PBS, washed and then homogenized in a buffer containing lysis buffer (50 mM Tris pH 8, 0.02 g/mL NaCl, 0.2% SDS, 1% Triton-X, 4 U/ml aprotinin, 2 mM leupeptin, 100 mM phenylmethanesulfonyl fluoride).
# The tissue and cell culture lysates were vortexed for 15-20 s and, then, centrifuged at 12,800×g for 20 min. The protein concentration in the supernatant was spectrophotometrically determined by Bradford's protein assay (Bradford, 1976). Protein samples were diluted with sample buffer (0.5 M Tris-HCl pH=6.8, 10% glycerol, 10% (w/v) SDS, 5% 2-mercaptoethanol, 0.05% (w/v) bromophenol blue) and then boiled for 3 min. Proteins (25 μg/lane) and prestained standards (BioRad Laboratories, Hercules, CA, USA) were loaded on 7% or 12% SDS precast polyacrylamide gels (BioRad Laboratories).
# After electrophoresis, the resolved proteins were transferred from the gel to nitrocellulose membranes. A blotting buffer [20 mMTris/150 mM glycine, pH=8.0, 20% (v/v) methanol] was used for gel and membrane saturation and blotting. Then, membranes were incubated in the dark with 1 μg/mL mouse monoclonal antibody (MoAb) anti-COX-1 and rabbit polyclonal Ab anti-COX-2 (1:1000) (both from AbCam, Cambridge, UK), rabbit polyclonal Ab anti p-IkB-α (1:200), mouse polyclonal Ab anti β-actin (1:500) (all from Santa Cruz Biotechnology), mouse MoAb anti-glial fibrillary acidic protein (GFAP) (1:200) and mouse mAb anti-ionized calcium-binding adapter molecule-1 (Iba-1) (1:200) (both from Merck Millipore) overnight at 4° C. The membranes were washed with 0.1% Tween 20-PBS (for 20 min, 3 times) and then incubated with the secondary antibody diluted 1:2000 for 60 min. Bands were visualized by chemiluminescence detection (Invitrogen, Milan, Italy). The β-actin level was used as a protein loading control. For tissue analysis, obtained bands were normalized to the level of β-actin performed for each cerebral area tested. For cell cultures the bands were normalized to the β-actin level in each experimental condition.
# as §1
# p-IkBα = assay: NF-kB activation (p-IkBα) in brain areas of LPS-treated mice, immunoblotting; conditions: all tested brain areas of LPS-treated mice
# Description: The protein concentration in the supernatant was spectrophotometrically determined by Bradford's protein assay (Bradford, 1976). […] Proteins (25 μg/lane) and prestained standards (BioRad Laboratories, Hercules, CA, USA) were loaded on 7% or 12% SDS precast polyacrylamide gels (BioRad Laboratories). After electrophoresis, the resolved proteins were transferred from the gel to nitrocellulose membranes. A blotting buffer [20 mMTris/150 mM glycine, pH=8.0, 20% (v/v) methanol] was used for gel and membrane saturation and blotting. […] Bands were visualized by chemiluminescence detection (Invitrogen, Milan, Italy). The β-actin level was used as a protein loading control. For tissue analysis, obtained bands were normalized to the level of β-actin performed for each cerebral area tested. For cell cultures the bands were normalized to the β-actin level in each experimental condition. […] VM in all the Figures) once a day for 10 days. […] On the seventh day, mice were anesthetized with tribromoethanol (250 mg/Kg, i.p.) and positioned in a stereotactic apparatus (Kopf Instruments, Tujunga, CA, USA).
# GFAP = assay: astroglial activation in LPS-treated mice, GFAP immunoreactivity and immunoblotting
# Description: as §2
# [1] = immunoblotting, mofezolac + LPS vs LPS alone
structure (smiles),measurement,setting,value
"COc1ccc(-c2noc(CC(=O)O)c2-c2ccc(OC)cc2)cc1 [mofezolac, 2-(3,4-bis(4-methoxyphenyl)isoxazol-5-yl)acetic acid]",PGE2 release reduction (%),PGE2; Caudate,67%
same,PGE2 release (ng/mg tissue),PGE2; Caudate-Putamen,1.84 + 0.035 ^d ng/mg tissue
same,PGE2 release (ng/mg tissue),PGE2; Frontal lobe,2.40 ± 0.046 ^d ng/mg tissue
same,PGE2 release reduction (%),PGE2; Frontal lobe,49%
same,PGE2 release (ng/mg tissue),PGE2; Hippocampus,2.33 ± 0.032 ^d ng/mg tissue
same,PGE2 release reduction (%),PGE2; Hippocampus,48%
same,PGE2 release (ng/mg tissue),PGE2; Substantia nigra,3.31 ± 0.079 ^d ng/mg tissue
same,PGE2 release reduction (%),PGE2; Substantia nigra,39%
same,Iba-1 levels,Iba-1; [1],significantly reduced
same,Iba-1 immunoreactivity,"Iba-1; immunohistochemistry, LPS-injected mice, mofezolac 6 mg/kg i.p., all the tested brain areas",reduction of Iba-1 immunoreactivity
same,COX-1 expression reduction (%),COX-1; Caudate,95%
same,COX-1 expression reduction (%),COX-1; Frontal lobe,94%
same,COX-1 expression reduction (%),COX-1; Hippocampus,82%
same,COX-1 expression,"COX-1; LPS challenged mice, all brain areas tested",significantly reduction of COX-1 expression
same,COX-1 expression reduction (%),COX-1; Substantia nigra,89%
same,p-IkBα,p-IkBα,significant reduction
same,GFAP levels,GFAP; [1],significantly reduced
same,GFAP immunoreactive cells,"GFAP; immunohistochemistry, LPS-treated mice, mofezolac 6 mg/kg i.p., all the tested brain areas",reduced the presence of GFAP immunoreactive cells
